# Patent US10294202B2, “Pyrrolidinones as herbicides” (FMC Corporation, priority 2013, dated 2019)
# Tests used:
# nutsedge, yellow = test: Test E preemergence herbicide test; type: in vivo, Cyperus esculentus; design: key: 0 = no effect, 100 = complete control
# Source text: Seeds of plant species selected from corn (Zea mays), soybean (Glycine max), velvetleaf (Abutilon theophrasti), lambsquarters (Chenopodium album), wild poinsettia (Euphorbia heterophylla), pigweed, palmer (palmer pigweed, Amaranthus palmeri), waterhemp (common waterhemp, Amaranthus rudis), surinam grass (Brachiaria decumbens), crabgrass, large (large crabgrass, Digitaria sanguinalis), crabgrass, Brazil (Brazilian crabgrass, Digitaria horizontalis), panicum, fall (fall panicum, Panicum dichotomiflorum), foxtail, giant (giant foxtail, Setaria faberii), foxtail, green (green foxtail, Setaria viridis), goosegrass (Eleusine indica), johnsongrass (Sorghum halepense), ragweed (common ragweed, Ambrosia elatior), barnyardgrass (Echinochloa crus-galli), sandbur (southern sandbur, Cenchrus echinatus), arrowleaf […] rhombifolia), ryegrass, Italian (Italian ryegrass, Lolium multiflorum), dayflower, VA (Virginia dayflower, Commelina virginica), field bindweed (Convolvulus arvensis), morningglory (Ipomoea coccinea), nightshade (eastern black nightshade, Solanum ptycanthum), kochia (Kochia scoparia), nutsedge, yellow (yellow nutsedge, Cyperus esculentus), cocklebur (common cocklebur, Xanthium strumarium), smartweed (ladysthumb smartweed, Polygonum Persicaria) and beggarticks (hairy beggarticks, Bidens pilosa), were planted into a silt loam soil and treated preemergence with test chemicals formulated in a non-phytotoxic solvent mixture which included a surfactant. Treated plants and controls were maintained in a greenhouse for 21 days, after which time all species were compared to controls and visually evaluated. Plant response ratings, summarized in Table E, are based on a scale of 0 to 100 where 0 is no effect and 100 is complete control. A dash (-) response means no test result.
# surinam grass = test: Test C pre-/postemergence herbicide test; type: in vivo, Brachiaria decumbens
# In short: (§1)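 Plants grown and held in a greenhouse for 13 to 15 days post-spray, then rated 0–100 by visual comparison with controls. Pre treatments targeted seeds in loam and sand; post treatments targeted 1- to 4-leaf plants in peat-based potting medium.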
# goosegrass = test: Test C pre-/postemergence herbicide test; type: in vivo, Eleusine indica
# In short: as §1
# bromegrass, downy = test: Test C pre-/postemergence herbicide test; type: in vivo, Bromus tectorum
# In short: as §1
# field violet = test: Test D pre-/postemergence herbicide test; type: in vivo, Viola arvensis; conditions: for Plant response rating: Field Violet, scale 0 to 100; for Plant response rating, Field Violet: scale 0 to 100 (0 no effect, 100 complete control)
# In short: (§2)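 Test chemicals in a non-phytotoxic solvent with surfactant were applied preemergence to seeds in silt loam soil and postemergence to plants at 2-18 cm (1- to 4-leaf stage) in peat-based medium. After 7 to 21 days in a controlled environment, injury was rated visually versus controls on a 0-100 scale (100 = complete control).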
# blackgrass = test: Test D pre-/postemergence herbicide test; type: in vivo, Alopecurus myosuroides; conditions: for Plant response rating: Blackgrass, scale 0 to 100; for Plant response rating, Blackgrass: scale 0 to 100 (0 no effect, 100 complete control)
# In short: as §2
# [1] = Preemergence, 62 g ai/ha, scale 0 to 100
# [2] = Preemergence, 125 g ai/ha, scale 0 to 100 (0 no effect, 100 complete control)
# [3] = Preemergence, 31 g ai/ha, scale 0 to 100 (0 no effect, 100 complete control)
# [4] = Preemergence, 250 g ai/ha, scale 0 to 100 (0 no effect, 100 complete control)
# [5] = Postemergence, 31 g ai/ha, scale 0 (no effect) to 100 (complete control)
# [6] = Postemergence, 62 g ai/ha, scale 0 to 100 (0 no effect, 100 complete control)
# [7] = Postemergence, 125 g ai/ha, scale 0 to 100 (0 no effect, 100 complete control)
# [8] = Postemergence, 250 g ai/ha, scale 0 to 100 (0 no effect, 100 complete control)
smiles,measurement,setting,value
O=C1NCC(c2ccc(Cl)c(Cl)c2)C1C(=O)Nc1ccccc1F (racemic) [Compound 14],"Plant response rating, Nutsedge, Yellow","nutsedge, yellow; 16 g ai/ha",0
same,"Plant response rating, Nutsedge, Yellow","nutsedge, yellow; 31 g ai/ha",0
same,"Plant response rating, Nutsedge, Yellow","nutsedge, yellow; 62 g ai/ha",0
same,"Plant response rating, Nutsedge, Yellow","nutsedge, yellow; 125 g ai/ha",0
same,"Plant response rating, Nutsedge, Yellow","nutsedge, yellow; 250 g ai/ha",0
same,"Plant response rating, Surinam Grass",surinam grass; [1],80
same,"Plant response rating, Surinam Grass",surinam grass; [2],95
same,"Plant response rating, Goosegrass",goosegrass; [1],0
same,"Plant response rating, Goosegrass",goosegrass; [2],0
same,Goosegrass plant response rating,goosegrass; [3],0
same,"Plant response rating, Bromegrass, Downy","bromegrass, downy; [1]",0
same,"Plant response rating, Bromegrass, Downy","bromegrass, downy; [2]",0
same,"Bromegrass, Downy plant response rating","bromegrass, downy; [3]",0
same,"Plant response rating, Bromegrass, Downy","bromegrass, downy; [4]",0
"O=C1NCC(c2ccc(F)c(F)c2)C1C(=O)Nc1cccc(F)c1F (centres unmarked) [Compound 17, N-(2,3-difluorophenyl)-4-(3,4-difluorophenyl)-2-oxo-3-pyrrolidinecarboxamide]","Plant response rating, Nutsedge, Yellow","nutsedge, yellow; 16 g ai/ha",0
same,"Plant response rating, Nutsedge, Yellow","nutsedge, yellow; 31 g ai/ha",0
same,"Plant response rating, Nutsedge, Yellow","nutsedge, yellow; 62 g ai/ha",0
same,"Plant response rating, Nutsedge, Yellow","nutsedge, yellow; 125 g ai/ha",0
same,"Plant response rating, Nutsedge, Yellow","nutsedge, yellow; 250 g ai/ha",15
same,"Plant response rating, Surinam Grass",surinam grass; [5],0
same,"Plant response rating, Surinam Grass",surinam grass; [6],0
same,"Plant response rating, Surinam Grass",surinam grass; [7],45
same,"Plant response rating, Surinam Grass",surinam grass; [8],60
same,"Plant response rating, Surinam Grass",surinam grass; [1],90
same,"Plant response rating, Surinam Grass",surinam grass; [2],90
same,"Plant response rating, Goosegrass",goosegrass; [5],0
same,"Plant response rating, Goosegrass",goosegrass; [6],0
same,"Plant response rating, Goosegrass",goosegrass; [7],0
same,"Plant response rating, Goosegrass",goosegrass; [8],0
same,"Plant response rating, Goosegrass",goosegrass; [1],50
same,"Plant response rating, Goosegrass",goosegrass; [2],85
same,Goosegrass plant response rating,goosegrass; [3],0
same,Plant response rating,"field violet; Postemergence, 16 g ai/ha",0
same,Plant response rating,"field violet; Postemergence, 31 g ai/ha",0
same,Plant response rating,"field violet; Postemergence, 62 g ai/ha",0
same,Plant response rating,"field violet; Postemergence, 125 g ai/ha",0
same,Plant response rating,"field violet; Postemergence, 250 g ai/ha",10
same,"Plant response rating, Bromegrass, Downy","bromegrass, downy; [5]",0
same,"Plant response rating, Bromegrass, Downy","bromegrass, downy; [6]",0
same,"Plant response rating, Bromegrass, Downy","bromegrass, downy; [7]",0
same,"Plant response rating, Bromegrass, Downy","bromegrass, downy; [8]",0
same,"Plant response rating, Bromegrass, Downy","bromegrass, downy; [1]",30
same,"Plant response rating, Bromegrass, Downy","bromegrass, downy; [2]",45
same,"Bromegrass, Downy plant response rating","bromegrass, downy; [3]",0
same,"Plant response rating, Bromegrass, Downy","bromegrass, downy; [4]",65
same,Plant response rating,"blackgrass; Postemergence, 16 g ai/ha",0
same,Plant response rating,"blackgrass; Postemergence, 31 g ai/ha",0
same,Plant response rating,"blackgrass; Postemergence, 62 g ai/ha",0
same,Plant response rating,"blackgrass; Postemergence, 125 g ai/ha",0
same,Plant response rating,"blackgrass; Postemergence, 250 g ai/ha",0
O=C1NC[C@H](c2cccc(C(F)(F)F)c2)[C@H]1C(=O)Nc1cccc(F)c1F [Compound 206],"Plant response rating, Nutsedge, Yellow","nutsedge, yellow; 31 g ai/ha",15
same,"Plant response rating, Nutsedge, Yellow","nutsedge, yellow; 62 g ai/ha",15
same,"Plant response rating, Nutsedge, Yellow","nutsedge, yellow; 125 g ai/ha",20
same,"Plant response rating, Nutsedge, Yellow","nutsedge, yellow; 250 g ai/ha",75
same,"Plant response rating, Field Violet","field violet; Preemergence, 62 g ai/ha",35
same,"Plant response rating, Field Violet","field violet; Preemergence, 125 g ai/ha",35
same,"Plant response rating, Field Violet","field violet; Preemergence, 31 g ai/ha",15
same,Plant response rating,"field violet; Preemergence, 250 g ai/ha",25
same,"Plant response rating, Blackgrass","blackgrass; Preemergence, 62 g ai/ha",70
same,"Plant response rating, Blackgrass","blackgrass; Preemergence, 125 g ai/ha",85
same,"Plant response rating, Blackgrass","blackgrass; Preemergence, 31 g ai/ha",30
same,Plant response rating,"blackgrass; Preemergence, 250 g ai/ha",90
